In ChEMBL document CHEMBL1136683, “Potent and selective aggrecanase inhibitors containing cyclic P1 substituents” (Bioorg Med Chem Lett, 2003):

Tests used:
[1] = Inhibition of bovine aggrecanase; set-up: species or system Bos taurus
[2] = molecular target: Matrix metalloproteinase-9 (Homo sapiens, UniProt P14780); experiment: Affinity for Matrix metalloprotease-9 (MMP-9)
[3] = Bioavailability after peroral administration (1 mg/kg) was determined in dog; type: ADME, organism-based, Canis lupus familiaris; details: in vivo, po
[4] = Tmax after peroral administration (10 mg/kg) was determined in rat; type: ADME, organism-based; details: in vivo, po
[5] = Vss after intravenous administration (5.0 mg/kg) was determined in rat; type: ADME, organism-based; details: in vivo, read-out: Vss
[6] = Systemic clearance after intravenous administration (5.0 mg/kg) was determined in rat; type: ADME, organism-based; details: in vivo
[7] = Tmax after peroral administration (1 mg/kg) was determined in dog; type: ADME, organism-based, Canis lupus familiaris; details: in vivo, po
[8] = Systemic clearance after intravenous administration (0.5 mg/kg) was determined in dog; type: ADME, organism-based, Canis lupus familiaris; details: in vivo
[9] = Vss after intravenous administration (0.5 mg/kg) was determined in dog; type: ADME, organism-based, Canis lupus familiaris; details: in vivo, read-out: Vss
[10] = Half life time after intravenous administration (0.5 mg/kg) was determined in dog; type: ADME, organism-based, Canis lupus familiaris; details: in vivo
[11] = Half life time after intravenous administration (5.0 mg/kg) was determined in rat; type: ADME, organism-based; details: in vivo
[12] = Bioavailability after peroral administration (10 mg/kg) was determined in rat; type: ADME, organism-based; details: in vivo, po

Sequence of Matrix metalloproteinase-9 (P14780 whole entry): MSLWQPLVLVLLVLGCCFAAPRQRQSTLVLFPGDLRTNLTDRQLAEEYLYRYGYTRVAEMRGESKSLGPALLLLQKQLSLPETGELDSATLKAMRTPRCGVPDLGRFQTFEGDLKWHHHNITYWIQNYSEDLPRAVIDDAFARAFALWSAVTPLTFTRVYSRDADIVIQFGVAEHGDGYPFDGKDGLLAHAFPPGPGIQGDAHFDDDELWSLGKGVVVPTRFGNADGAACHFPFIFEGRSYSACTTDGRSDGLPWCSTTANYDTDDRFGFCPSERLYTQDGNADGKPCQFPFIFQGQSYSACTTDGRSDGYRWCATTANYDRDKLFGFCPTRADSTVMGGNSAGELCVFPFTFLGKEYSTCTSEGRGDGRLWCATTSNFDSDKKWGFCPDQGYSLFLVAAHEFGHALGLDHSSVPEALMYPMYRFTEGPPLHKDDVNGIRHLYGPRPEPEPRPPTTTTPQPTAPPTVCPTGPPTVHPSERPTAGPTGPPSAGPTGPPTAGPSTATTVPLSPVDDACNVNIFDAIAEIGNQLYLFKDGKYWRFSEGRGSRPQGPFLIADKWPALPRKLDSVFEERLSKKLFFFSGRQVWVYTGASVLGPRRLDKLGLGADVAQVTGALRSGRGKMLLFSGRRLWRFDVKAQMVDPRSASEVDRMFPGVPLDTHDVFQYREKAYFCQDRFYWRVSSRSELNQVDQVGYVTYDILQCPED

Compound CN1CCC([C@H](C(=O)NO)[C@@H](Cc2cccc(O)c2)C(=O)N[C@H]2c3ccccc3C[C@H]2O)CC1 has an IC50 [1] of 210 nM and a Ki [2] greater than 2130 nM.
In the case of O=C(NO)[C@@H](NCC1CC1)[C@@H](Cc1cccc(O)c1)C(=O)N[C@H]1c2ccccc2C[C@H]1O, the IC50 [1] is reported as 12 nM.
With CS(=O)(=O)N1CCC([C@H](C(=O)NO)[C@@H](Cc2cccc(O)c2)C(=O)N[C@H]2c3ccccc3C[C@H]2O)CC1 the IC50 [1] was 3 nM and the Ki [2] was 2100 nM.
With O=C(N[C@H]1c2ccccc2C[C@H]1O)[C@H](Cc1cccc(O)c1)[C@@H](C(=O)NO)C1CCNCC1 the bioavailability [3] was 20%, the Tmax [4] was 1.5 h and the Vd [5] was 0.3 L/kg. The clearance [6] was 8.33 mL/min/kg, the Tmax [7] was 4.3 h and the clearance [8] was 1.67 mL/min/kg. For the same compound, the Vd [9] was 0.2 L/kg, the half-life [10] was 3.8 h and the half-life [11] was 4 h. It also gave a bioavailability [12] of 1%, an IC50 [1] of 28 nM and a Ki [2] of 4000 nM.
O=C(N[C@H]1c2ccccc2C[C@H]1O)[C@H](Cc1cccc(O)c1)[C@@H](C(=O)NO)C1CN(C(=O)C(F)(F)F)C1 gave an IC50 [1] of 3 nM and a Ki [2] of 1490 nM.
Work on CC(C)(C)OC(=O)N1CCC([C@H](C(=O)O)C(Cc2cccc(O)c2)C(=O)N[C@H]2c3ccccc3C[C@H]2O)CC1 (stereo not given in full) yielded an IC50 [1] greater than 1000 nM and a Ki [2] greater than 2130 nM.
Compound CCC(=O)N1CCC(C[C@H](C(=O)NO)[C@@H](Cc2cccc(O)c2)C(=O)N[C@H]2c3ccccc3C[C@H]2O)CC1 has an IC50 [1] of 97 nM and a Ki [2] greater than 2130 nM.
O=C(N[C@H]1c2ccccc2C[C@H]1O)[C@H](Cc1cccc(O)c1)[C@@H](C(=O)NO)C1CNC1 gave an IC50 [1] of 7 nM and a Ki [2] greater than 2130 nM.
CC(C)(C)OC(=O)N1CCC([C@H](C(=O)NO)[C@@H](Cc2cccc(O)c2)C(=O)N[C@H]2c3ccccc3C[C@H]2O)CC1 showed an IC50 [1] of 19 nM and a Ki [2] of 1300 nM.
Compound CCOC(=O)N1CCC([C@H](C(=O)NO)[C@@H](Cc2cccc(O)c2)C(=O)N[C@H]2c3ccccc3C[C@H]2O)CC1 has an IC50 [1] of 7 nM and a Ki [2] of 832 nM.
CC(=O)N1CCC(C(C(=O)NO)C(Cc2cccc(O)c2)C(=O)N[C@H]2c3ccccc3C[C@H]2O)CC1 (single isomer, unassigned) gave an IC50 [1] of 29 nM and a Ki [2] of 1740 nM.
Work on CCN1CCC(C(C(=O)NO)C(Cc2cccc(O)c2)C(=O)N[C@H]2c3ccccc3C[C@H]2O)CC1 (single isomer, unassigned) yielded an IC50 [1] of 45 nM and a Ki [2] greater than 2130 nM.
Compound CC(=O)N1CCC(CC(C(=O)NO)C(Cc2cccc(O)c2)C(=O)N[C@H]2c3ccccc3C[C@H]2O)CC1 (single isomer, unassigned) has an IC50 [1] of 114 nM and a Ki [2] greater than 2130 nM.
